Values after ≈ are worked out from the molar mass of the structure shown. Values joined by “and” are separate entries in the source; they are usually repeats but may differ in a detail not shown here. Equal entries are not always repeated. Active and inactive are the calls of the source. The calls are words filed in the database; no cut-off is given here. Positions of bridges follow the written chain, without caps; N, C: chain ends. Residues, ends and D or L forms follow the SMILES beside them.
Tests used:
SH-SY5Y [1] = assay: Cytotoxicity against human SH-SY5Y cells using best fit nonlinear regression analysis; assay type: functional, cell-based
U-251 = assay: Cytotoxicity against human U-251 cells by sulforhodamine B assay; assay type: functional, cell-based
SH-SY5Y [2] = assay: Cytotoxicity against human SH-SY5Y cells assessed as cell viability using raw interpretation method; assay type: functional, cell-based
U-87 MG [3] = assay: Cytotoxicity against human U-87 MG cells assessed as cell viability using raw interpretation method; assay type: functional, cell-based, U-87MG ATCC
U-87 MG [4] = assay: Cytotoxicity against human U-87 MG cells using best fit nonlinear regression analysis; assay type: functional, cell-based, U-87MG ATCC
SH-SY5Y [5] = assay: Cytotoxicity against human SH-SY5Y cells assessed as cell viability at 5 uM upto 72 hrs by MTT assay; assay type: functional; settings: time hrs <=72, read-out: Activity
U-87 MG [6] = assay: Cytotoxicity against human U-87 MG cells assessed as cell viability at 5 uM upto 72 hrs by MTT assay; assay type: functional, U-87MG ATCC; settings: time hrs <=72, read-out: Activity
SH-SY5Y [7] = assay: Cytotoxicity against human SH-SY5Y cells assessed as TMZ-induced cell death at 1.4 uM cotreated with 176 uM of TMZ incubated upto 72 hrs by MTT assay; assay type: functional, cell-based; settings: time hrs <=72
U-87 MG [8] = assay: Cytotoxicity against human U-87 MG cells assessed as TMZ-induced cell death at 0.35 to 2.8 uM cotreated with 176 to 704 uM of TMZ incubated upto 72 hrs by MTT assay; assay type: functional, cell-based; settings: U-87MG ATCC, dose 0.35-2.8 µM, time hrs <=72
U-87 MG [9] = assay: Cytotoxicity against human U-87 MG cells assessed as TMZ-induced cell death at 4.2 uM cotreated with 1408 uM of TMZ incubated upto 72 hrs by MTT assay; assay type: functional, cell-based; settings: U-87MG ATCC, time hrs <=72
U-87 MG [10] = assay: Induction of morphological changes in human U-87 MG cells assessed as appearance of shrunken cell bodies at 1408 uM measured after 72 hrs by phase contrast microscopy; assay type: functional, U-87MG ATCC
U-87 MG [11] = assay: Induction of morphological changes in human U-87 MG cells assessed as membrane blebbing at 1408 uM measured after 72 hrs by phase contrast microscopy; assay type: functional, U-87MG ATCC
U-87 MG [12] = assay: Induction of morphological changes in human U-87 MG cells assessed as appearance of undergoing apoptosis at 1408 uM measured after 72 hrs by phase contrast microscopy; assay type: functional, U-87MG ATCC
U-87 MG [13] = assay: Induction of morphological changes in human U-87 MG cells assessed as cell death at 4.2 uM cotreated with 1408 uM of TMZ measured after 72 hrs by phase contrast microscopy; assay type: functional, U-87MG ATCC
U-87 MG [14] = assay: Effect on cell morphology in human U-87 MG cells at 4.2 uM cotreated with 1408 uM of TMZ measured after 72 hrs by phase contrast microscopy; assay type: functional, cell-based; settings: U-87MG ATCC
U-87 MG [15] = assay: Cytotoxicity against human U-87 MG cells assessed as TMZ-induced cell death at 4.4 uM cotreated with 352 uM of TMZ measured after 72 hrs by phase contrast microscopy; assay type: functional, cell-based; settings: U-87MG ATCC
U-87 MG [16] = assay: Cytotoxicity against human U-87 MG cells by sulforhodamine B assay; assay type: functional, cell-based, U-87MG ATCC
SH-SY5Y [17] = assay: Cytotoxicity against human SH-SY5Y cells assessed as TMZ-induced cell death at 0.27 to 2.15 uM cotreated with 216.2 uM of TMZ incubated upto 72 hrs by MTT assay; assay type: functional; settings: dose 0.27-2.15 µM, time hrs <=72
SH-SY5Y [18] = assay: Cytotoxicity against human SH-SY5Y cells assessed as TMZ-induced cell death at 2.15 uM cotreated with 108.1 uM of TMZ incubated upto 72 hrs by MTT assay; assay type: functional; settings: time hrs <=72
SH-SY5Y [19] = assay: Cytotoxicity against human SH-SY5Y cells assessed as TMZ-induced cell death at 2.15 uM cotreated with 54.05 uM of TMZ incubated upto 72 hrs by MTT assay; assay type: functional; settings: time hrs <=72
U-87 MG [20] = assay: Cytotoxicity against human U-87 MG cells assessed as TMZ-induced cell death at 4.5 uM cotreated with 352 to 1408 uM of TMZ incubated upto 72 hrs by MTT assay; assay type: functional, cell-based; settings: U-87MG ATCC, time hrs <=72
U-87 MG [21] = assay: Induction of morphological changes in human U-87 MG cells assessed as appearance of shrunken cell bodies at 4.4 uM measured after 72 hrs by phase contrast microscopy; assay type: functional, cell-based; settings: U-87MG ATCC
U-87 MG [22] = assay: Induction of morphological changes in human U-87 MG cells assessed as membrane blebbing at 4.4 uM measured after 72 hrs by phase contrast microscopy; assay type: functional, cell-based; settings: U-87MG ATCC
U-87 MG [23] = assay: Induction of morphological changes in human U-87 MG cells assessed as cell death at 4.4 uM cotreated with 352 uM of TMZ measured after 72 hrs by phase contrast microscopy; assay type: functional, cell-based; settings: U-87MG ATCC
U-87 MG [24] = assay: Induction of morphological changes in human U-87 MG cells assessed as swollen nuclei at 4.4 uM cotreated with 352 uM of TMZ measured after 72 hrs by phase contrast microscopy; assay type: functional, cell-based; settings: U-87MG ATCC
U-87 MG [25] = assay: Induction of morphological changes in human U-87 MG cells assessed as membrane blebbing at 4.4 uM cotreated with 352 uM of TMZ measured after 72 hrs by phase contrast microscopy; assay type: functional, cell-based; settings: U-87MG ATCC
U-87 MG [26] = assay: Effect on cell morphology in human U-87 MG cells at 4.4 uM cotreated with 352 uM of TMZ measured after 72 hrs by phase contrast microscopy; assay type: functional, cell-based; settings: U-87MG ATCC
SH-SY5Y [27] = assay: Cytotoxicity against human SH-SY5Y cells assessed as cell viability at 100 uM incubated upto 72 hrs by MTT assay; assay type: functional; settings: time hrs <=72, read-out: Activity
SH-SY5Y [28] = assay: Cytotoxicity against human SH-SY5Y cells assessed as cell viability at 2000 uM incubated upto 72 hrs by MTT assay; assay type: functional; settings: time hrs <=72, read-out: Activity
SH-SY5Y [29] = assay: Cytotoxicity against human SH-SY5Y cells assessed as cell viability at 500 uM incubated upto 72 hrs by MTT assay; assay type: functional; settings: time hrs <=72, read-out: Activity
U-87 MG [30] = assay: Cytotoxicity against human U-87 MG cells assessed as cell viability at 100 uM incubated upto 72 hrs by MTT assay; assay type: functional, U-87MG ATCC; settings: time hrs <=72, read-out: Activity
U-87 MG [31] = assay: Cytotoxicity against human U-87 MG cells assessed as cell viability at 2000 uM incubated upto 72 hrs by MTT assay; assay type: functional, U-87MG ATCC; settings: time hrs <=72, read-out: Activity
U-87 MG [32] = assay: Cytotoxicity against human U-87 MG cells assessed as cell viability at 10000 uM incubated upto 72 hrs by MTT assay; assay type: functional, U-87MG ATCC; settings: time hrs <=72, read-out: Activity
U-87 MG [33] = assay: Cytotoxicity against human U-87 MG cells assessed as cell death at 352 uM incubated upto 72 hrs by MTT assay; assay type: functional, U-87MG ATCC; settings: time hrs <=72

SMILES | IC50 (SH-SY5Y [1]) [µM] | IC50 (U-251) | IC50 (SH-SY5Y [2]) [µM] | IC50 (U-87 MG [3]) [µM] | IC50 (U-87 MG [4]) [µM] | viability at 5 µM (SH-SY5Y [5]) [%] | viability at 5 µM (U-87 MG [6]) [%] | Activity (U-87 MG [10]) [%] | Activity (U-87 MG [11]) [%] | Activity (U-87 MG [12]) [%] | other results
CC(C)C[C@@H]1NC(=O)CNC(=O)[C@H](CC(N)=O)NC(=O)[C@H](CCCNC(=N)N)NC(=O)[C@H](CO)NC(=O)[C@@H]2CSSC[C@@H]3NC(=O)[C@H]([C@@H](C)O)NC(=O)CNC(=O)CNC(=O)[C@H](C(C)C)NC(=O)[C@@H]4CSSC[C@H](NC(=O)[C@H]([C@@H](C)O)NC(=O)[C@H](CSSC[C@H](NC(=O)[C@H](C(C)C)NC(=O)[C@@H]5CCCN5C1=O)C(=O)NCC(=O)N[C@@H](CCC(=O)O)C(=O)N[C@@H]([C@@H](C)O)C(=O)N4)NC(=O)CNC(=O)[C@@H]1CCCN1C(=O)[C@H]([C@@H](C)O)NC(=O)[C@H](CC(N)=O)NC3=O)C(=O)N[C@@H](CO)C(=O)N[C@@H](Cc1c[nH]c3ccccc13)C(=O)N1CCC[C@H]1C(=O)N[C@@H](C(C)C)C(=O)N2 | 2.88 | 37.2 µg/mL (≈ 12.9 µM) | 3.53 | 3.76 | 2.91 | 13.2 | 29.6 | 40 | 40 | 40 | Activity (SH-SY5Y [7]): Active; Activity (U-87 MG [8]): Active; Activity (U-87 MG [9]): Active; Activity (U-87 MG [13]): 50%; Activity (U-87 MG [14]): Active
CC[C@H](C)[C@@H]1NC(=O)[C@H](C)NC(=O)[C@H](CO)NC(=O)[C@H](CO)NC(=O)[C@H]([C@@H](C)CC)NC(=O)[C@@H]2CSSC[C@@H]3NC(=O)[C@H](C(C)C)NC(=O)[C@H](CCCCN)NC(=O)[C@H](CO)NC(=O)[C@H](CCCCN)NC(=O)[C@@H]4CSSC[C@H](NC(=O)[C@H](CO)NC(=O)[C@H](CCC(=O)O)NC(=O)CNC(=O)[C@H](CSSC[C@H](NC(=O)CNC1=O)C(=O)N[C@@H](CO)C(=O)N4)NC(=O)[C@@H]1CCCN1C(=O)[C@H]([C@@H](C)CC)NC(=O)CNC(=O)[C@H](CC(N)=O)NC(=O)[C@H](CCCNC(=N)N)NC(=O)[C@H](Cc1ccc(O)cc1)NC3=O)C(=O)N[C@@H](C(C)C)C(=O)N[C@@H](Cc1c[nH]c3ccccc13)C(=O)N[C@@H]([C@@H](C)CC)C(=O)N1CCC[C@H]1C(=O)N2 (cyclo(AIGCSCKSKVCYRNGIPCGESCVWIPCISS); disulfide 4-18, 6-22, 11-27) | 2.15 | 17.1 µg/mL and 790 nM | 3.07 | 5.66 | 4.5 | 11.5 | 54.7 | – | – | – | Activity (U-87 MG [15]): inactive; IC50 (U-87 MG [16]): 0.45 µM; Activity (SH-SY5Y [17]): 40%; Activity (SH-SY5Y [18]): 30%; Activity (SH-SY5Y [19]): <20%; Activity (U-87 MG [20]): Active; Activity (U-87 MG [21]): Active; Activity (U-87 MG [22]): Active; Activity (U-87 MG [23]): Active; Activity (U-87 MG [24]): Active; Activity (U-87 MG [25]): Active; Activity (U-87 MG [26]): Active
Cn1nnc2c(C(N)=O)ncn2c1=O [TEMOZOLOMIDE] | 393 | – | 513 | 3190 | 2900 | – | – | 40 | 40 | 40 | viability at 100 µM (SH-SY5Y [27]): 96.6%; viability at 2000 µM (SH-SY5Y [28]): 15.5%; viability at 500 µM (SH-SY5Y [29]): 41.5%; viability at 100 µM (U-87 MG [30]): 85.2%; viability at 2000 µM (U-87 MG [31]): 57.3%; viability at 10000 µM (U-87 MG [32]): 32.4%; Activity (U-87 MG [33]): 10%

— ChEMBL document CHEMBL5046264, “Cyclotides Chemosensitize Glioblastoma Cells to Temozolomide” (J Nat Prod, 2022)
